Data: PubChem BioAssay (NCI)
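Each compound was tested at five concentrations against cells in 96-well plates for 48 hours. GI50 is the concentration that inhibits growth by half. Definition used: TGI = concentration required for complete inhibition of growth.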

Legend:
Experiment in all cases: growth of human tumour cells (NCI), 48 h
[1] = system: NCI-H522 lung
[2] = system: NCI/ADR-RES ovarian
[3] = system: NCI-H226 lung
[4] = system: HL-60(TB) leukemia
[5] = system: OVCAR-3 ovarian
[6] = system: A498 renal
[7] = system: K-562 leukemia
[8] = system: HOP-92 NSCLC
[9] = system: SN12C renal
[10] = system: OVCAR-5 ovarian
[11] = system: MDA-MB-231 breast
[12] = system: HT29 colon
[13] = system: UACC-257 melanoma
[14] = system: OVCAR-4 ovarian
[15] = system: MCF7 breast
[16] = system: CCRF-CEM leukemia
[17] = system: MDA-MB-435
[18] = system: SF-268 CNS
[19] = system: ACHN renal
[20] = system: SK-MEL-2 melanoma
[21] = system: 786-0 renal
[22] = system: SNB-19 CNS
[23] = system: KM12 colon
[24] = system: OVCAR-8 ovarian
[25] = system: COLO 205 colon
[26] = system: SW-620 colon
[27] = system: SK-MEL-28 melanoma
[28] = system: SF-295 CNS
[29] = system: HCT-15 colon

NC(=O)[C@@H](CCC(F)(F)F)N(Cc1ccc(-c2ncon2)cc1F)S(=O)(=O)c1ccc(Cl)cc1
GI50 [1]: 48.8 µM | TGI [1]: > 100 µM | GI50 [2]: 47.5 µM | TGI [2]: > 100 µM | GI50 [3]: > 54.1 µM | TGI [3]: > 100 µM | GI50 [4]: 23.7 µM | TGI [4]: 65.6 µM | GI50 [5]: 23.6 µM | TGI [5]: > 60.5 µM | GI50 [6]: 8.86 µM | TGI [6]: > 62.7 µM | GI50 [7]: 34.9 µM | TGI [7]: > 100 µM | GI50 [8]: 8.88 µM | TGI [8]: 43.3 µM | GI50 [9]: 25.8 µM | TGI [9]: > 57.8 µM | GI50 [10]: > 49.5 µM | TGI [10]: > 100 µM | GI50 [11]: 36.3 µM | TGI [11]: > 100 µM | GI50 [12]: 21.3 µM | TGI [12]: > 58.7 µM | GI50 [13]: 27.3 µM | TGI [13]: > 85.6 µM | GI50 [14]: 44.5 µM | TGI [14]: > 100 µM | GI50 [15]: 28.4 µM | TGI [15]: > 100 µM | GI50 [16]: 20.8 µM | TGI [16]: > 100 µM | GI50 [17]: 21.3 µM | TGI [17]: > 59.1 µM | GI50 [18]: 39.6 µM | TGI [18]: > 100 µM | GI50 [19]: 26.7 µM | TGI [19]: > 73.2 µM | GI50 [20]: 29.7 µM | TGI [20]: > 63.9 µM | GI50 [21]: > 40.5 µM | TGI [21]: > 59 µM | GI50 [22]: > 50.6 µM | TGI [22]: > 100 µM | GI50 [23]: 23.1 µM | TGI [23]: > 56.3 µM | GI50 [24]: 46.8 µM | TGI [24]: > 100 µM | GI50 [25]: 27.4 µM | TGI [25]: > 57.2 µM | GI50 [26]: > 59.9 µM | TGI [26]: > 100 µM | GI50 [27]: 45.5 µM | TGI [27]: > 100 µM | GI50 [28]: 35.3 µM | TGI [28]: > 100 µM | GI50 [29]: 69.6 µM
